# Data reported in PMC5491650, “Structure-Activity Relationships of Pentacyclic Triterpenoids as Potent and Selective Inhibitors against Human Carboxylesterase 1” (Frontiers in Pharmacology, 2017).
# Read-outs that look alike come from different tables or passages of the source.
# What was measured:
# [1] = biological target: T1, hCE1 (Homo sapiens, UniProt P23141); test: hCE1 inhibition assay, DME hydrolysis in human liver microsomes; format: biochemical; parameters: tissue Celsis (Shanghai, China); host or cells: human liver microsomes (HLM);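 also: carboxylesterase inhibition read out as probe hydrolysis, with DME serving as hCE1 substrate and DDAB as hCE2 substrate, in DMSO below 2% (V/V)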
# T1 sequence (P23141 18-567): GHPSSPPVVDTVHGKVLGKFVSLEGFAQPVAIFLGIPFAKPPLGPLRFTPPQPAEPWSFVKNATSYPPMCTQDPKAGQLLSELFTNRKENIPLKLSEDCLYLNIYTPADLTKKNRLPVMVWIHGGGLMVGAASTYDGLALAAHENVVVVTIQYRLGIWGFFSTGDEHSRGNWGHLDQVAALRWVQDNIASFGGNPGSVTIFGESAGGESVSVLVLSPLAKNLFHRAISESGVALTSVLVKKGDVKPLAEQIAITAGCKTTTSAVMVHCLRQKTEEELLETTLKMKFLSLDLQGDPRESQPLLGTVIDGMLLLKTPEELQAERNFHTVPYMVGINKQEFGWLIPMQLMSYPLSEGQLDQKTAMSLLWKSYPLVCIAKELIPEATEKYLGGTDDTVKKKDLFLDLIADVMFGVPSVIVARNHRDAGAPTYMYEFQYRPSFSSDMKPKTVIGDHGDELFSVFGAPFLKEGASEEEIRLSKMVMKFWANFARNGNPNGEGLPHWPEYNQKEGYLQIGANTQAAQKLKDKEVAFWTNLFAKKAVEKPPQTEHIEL
# Protocol: (§1) All fluorescence-based assays were performed on Synergy H^1 Hybrid Multi-Mode Microplate Reader (BioTek, USA).
# (§2) The inhibitory effects toward CEs were assayed using DME and DDAB as the specific probe substrates for hCE1 and hCE2, respectively. […] Control incubations without BNPP were also performed. After incubation, ice-cold acetonitrile (equal volume of incubation mixture, 200 μL) was added to terminate the reaction. The mixture was then centrifuged at 20,000 g for 20 min at 4°C. All these compounds dissolved in DMSO, and the final concentration of DMSO was <2% (V/V). Aliquots of the supernatant were then taken for further microplate reader analyses. […] First, each of the potential esterase inhibitors was pre-incubated with HLM at 37°C for 10 min with shaking in microplate reader. Then DME was added to start the reaction. After incubation at 37°C for 10 min in a shaking bath, LDR (equal volume of incubation mixture, 50 μL) was added to terminate the reaction, and luminescence measurements were conducted as described above.
# [2] = biological target: T2, hCE2 (Homo sapiens, UniProt O00748); test: hCE2 inhibition assay, DDAB hydrolysis in human liver microsomes; format: biochemical
# T2 construct: tissue Celsis (Shanghai, China); host or cells: human liver microsomes (HLM)
# T2 sequence (O00748 27-559): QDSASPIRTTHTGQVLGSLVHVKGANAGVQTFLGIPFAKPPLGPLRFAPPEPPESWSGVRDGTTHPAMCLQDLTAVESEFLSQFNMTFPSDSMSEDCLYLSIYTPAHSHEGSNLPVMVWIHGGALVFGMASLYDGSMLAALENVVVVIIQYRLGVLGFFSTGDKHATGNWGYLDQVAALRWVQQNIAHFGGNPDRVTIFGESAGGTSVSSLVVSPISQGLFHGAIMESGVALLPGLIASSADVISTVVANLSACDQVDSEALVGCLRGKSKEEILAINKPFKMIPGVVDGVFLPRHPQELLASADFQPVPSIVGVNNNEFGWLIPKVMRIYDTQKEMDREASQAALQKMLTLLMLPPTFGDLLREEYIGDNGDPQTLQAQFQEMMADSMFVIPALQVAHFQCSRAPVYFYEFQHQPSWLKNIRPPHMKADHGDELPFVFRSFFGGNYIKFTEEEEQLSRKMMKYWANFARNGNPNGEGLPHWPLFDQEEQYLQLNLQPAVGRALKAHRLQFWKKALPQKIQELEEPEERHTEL
# Protocol: as §1, §2
# [3] = DME as probe substrate, HLM, averages of at least three experiments, read-out: IC50 (hCE1)
# [4] = log of the experimental IC50 in μM, used for 3D-QSAR
# [5] = DDAB as probe substrate, HLM, averages of at least three experiments, read-out: IC50 (hCE2)
Compound,"IC50 [1, 3]","Observed Log(IC50_hCE1) [1, 4]","IC50 [2, 5]",further results
"CC1(C)CCC2(C(=O)O)C(O)CC3(C)C(=CCC4C5(C)CC(O)C(O)C(C)(CO)C5CCC43C)C2C1 (stereo not drawn) [Compound 3, polygalacic acid]",64.7 µM,1.811 μM,> 100 µM,
"C[C@H]1[C@H](C)CC[C@]2(C)CC[C@]3(C)C(=CC(=O)[C@@H]4[C@@]5(C)CC[C@@H](O)[C@](C)(C(=O)O)[C@@H]5CC[C@]43C)[C@H]12 [Compound 6, 11-keto-β-boswellic acid]",124 µM,2.092 μM,,
"CC1=C(O)C(=O)C=C2C1=CC=C1[C@@]2(C)CC[C@@]2(C)[C@@H]3C[C@](C)(C(=O)O)CC[C@]3(C)CC[C@]12C [Compound 7, celastrol]",4.43 µM,0.6464 μM,,
CC(C)=CCCC(C)(O)C1CCC2(C)C1C(O)CC1C3(C)CCC(O)C(C)(C)C3CCC12C (stereo not drawn) [Compound 8],> 500 µM,,,
CC(C)=CCCC(C)(O)C1CCC2(C)C1C(O)CC1C3(C)CCC(O)C(C)(C)C3C(O)CC12C (stereo not drawn) [Compound 9],> 500 µM,,,
C=C(CCC(C(=O)O)C1C(O)CC2(C)C3=C(CCC12C)C1(C)CCC(OC(C)=O)C(C)(C)C1CC3)C(C)C (stereo not drawn) [Compound 10],21.7 µM,1.337 μM,,
C=C(CCC(C(=O)O)C1C(O)CC2(C)C3=CCC4C(C)(CCC(OC(C)=O)C4(C)C)C3=CCC12C)C(C)C (stereo not drawn) [Compound 11],27.6 µM,1.441 μM,> 100 µM,
C=C(CCC(C(=O)O)C1C(O)CC2(C)C3=CCC4C(C)(C)C(=O)CCC4(C)C3=CCC12C)C(C)C (stereo not drawn) [Compound 12],58.6 µM,1.7679 μM,> 100 µM,
C[C@H](CC(=O)C[C@@H](C)[C@H]1C[C@H](O)[C@@]2(C)C3=C(C(=O)C[C@]12C)[C@@]1(C)CCC(=O)C(C)(C)[C@@H]1C[C@@H]3O)C(=O)O [Compound 13],,,,IC50 [2]: > 100 µM; IC50 [1]: > 400 µM
C[C@H](CC(=O)C[C@@H](C)[C@H]1CC(=O)[C@@]2(C)C3=C(C(=O)C[C@]12C)[C@@]1(C)CC[C@H](O)C(C)(C)[C@@H]1C[C@@H]3O)C(=O)O [Compound 14],> 400 µM,,> 100 µM,
"CC1(C)CCC2(C(=O)O)CCC3(C)C(=CCC4C5(C)CCC(=O)C(C)(C)C5CCC43C)C2C1 (stereo not drawn) [Compound 15, 3-oxo-olean-12-en-28-oic acid]",0.13 µM,,16.1 µM,Observed Log(IC50_hCE1) [1]: -0.8861 μM; Selectivity [1]: 123.07
"CC(=O)OC1CCC2(C)C(CCC3(C)C2CC=C2C4CC(C)(C)CCC4(C(=O)O)CCC23C)C1(C)C (stereo not drawn) [Compound 19, 3β-O-acetyl-olean-12-en-28-oic acid]",0.19 µM,-0.7212 μM,10.2 µM,
"CC1CCC2(C(=O)O)CCC3(C)C(=CCC4C5(C)CCC(=O)C(C)(C)C5CCC43C)C2C1C (stereo not drawn) [Compound 21, 3-oxo-urs-12-en-28-oic acid]",0.037 µM,-1.4318 μM,9.56 µM,
"COC(=O)C12CCC(C)C(C)C1C1=CCC3C4(C)CCC(=O)C(C)(C)C4CCC3(C)C1(C)CC2 (stereo not drawn) [Compound 24, 3-oxo-urs-12-en-28-oic acid methyl ester]",0.9 µM,-0.04576 μM,> 100 µM,
"COC(=O)C12CCC(C)C(C)C1C1=CC(=O)C3C4(C)CCC(=O)C(C)(C)C4CCC3(C)C1(C)CC2 (stereo not drawn) [Compound 25, 3,11-dioxo-urs-12-en-28-oic acid methyl ester]",33.2 µM,1.521 μM,11.9 µM,
CC1(C(=O)O)CCC2(C)CCC3(C)C(=CCC4C5(C)CCC(O)C(C)(C)C5CCC43C)C2C1 (stereo not drawn) [Compound 26],,0.9513 μM,,"IC50 ([1]; IC50 (hCE1), DME as probe substrate, HLM, averages of at least three experiments): 8.94 µM"
"O=[N+]([O-])c1ccc(OP(=O)(O)Oc2ccc([N+](=O)[O-])cc2)cc1 [Compound 28, Bis-p-nitrophenyl phosphate, reference compound]",0.031 µM,,,

# More lines, main results first:
"IC50 [1, 3]","Observed Log(IC50_hCE1) [1, 4]","IC50 [2, 5]",Compound,further results
0.28 µM,-0.5528 μM,,"CC1(C)CC[C@]2(C(=O)O)CC[C@]3(C)C(=CC[C@@H]4[C@@]5(C)CC[C@H](O)C(C)(C)[C@@H]5CC[C@]43C)[C@@H]2C1 [Compound 1, oleanolic acid]",
0.24 µM,-0.6198 μM,,"C[C@H]1[C@H](C)CC[C@]2(C(=O)O)CC[C@]3(C)C(=CC[C@@H]4[C@@]5(C)CC[C@H](O)C(C)(C)[C@@H]5CC[C@]43C)[C@H]12 [Compound 2, ursolic acid]",
13 µM,1.1126 μM,,"CC1(C)[C@@H](O)CC[C@]2(C)[C@H]3C(=O)C=C4[C@@H]5C[C@@](C)(C(=O)O)CC[C@]5(C)CC[C@@]4(C)[C@]3(C)CC[C@@H]12 [Compound 4, glycyrrhetic acid]",
> 400 µM,,,"C[C@H]1[C@H](C)CC[C@]2(C)CC[C@]3(C)C(=CC[C@@H]4[C@@]5(C)CC[C@@H](O)[C@](C)(C(=O)O)[C@@H]5CC[C@]43C)[C@H]12 [Compound 5, β-boswellic acid]",
2.41 µM,0.382 μM,6.12 µM,"CC1(C)CCC2(CO)CCC3(C)C(=CCC4C5(C)CCC(O)C(C)(C)C5CCC43C)C2C1 (stereo not drawn) [Compound 16, 3β-olean-12-ene-3,28-diol]",
6.23 µM,0.7945 μM,5.7 µM,"COC(=O)C12CCC(C)(C)CC1C1=CCC3C4(C)CCC(O)C(C)(C)C4CCC3(C)C1(C)CC2 (stereo not drawn) [Compound 17, 3β-hydroxy-olean-12-en-28-oic acidmethyl ester]",
3.21 µM,0.5065 μM,4.11 µM,"CC1(C)CCC2(C(N)=O)CCC3(C)C(=CCC4C5(C)CCC(O)C(C)(C)C5CCC43C)C2C1 (stereo not drawn) [Compound 18, 3β-hydroxy-olean-12-en-28-amide]",
0.017 µM,-1.77 μM,56 µM,"CC1(C)CCC2(C(=O)O)CCC3(C)C(=CCC4C5(C)CCC(OC(=O)CCC(=O)O)C(C)(C)C5CCC43C)C2C1 (stereo not drawn) [Compound 20, 3β-O-(β-carboxypropionyl)-olean-12-en-28-oic acid]","selectivity over hCE2 ([1]; hCE1 versus hCE2, values of the text): 3296 fold"
1.83 µM,0.2625 μM,11.9 µM,"COC(=O)C12CCC(C)C(C)C1C1=CCC3C4(C)CCC(O)C(C)(C)C4CCC3(C)C1(C)CC2 (stereo not drawn) [Compound 23, 3β-hydroxy-urs-12-en-28-oic acid methyl ester]",
6.94 µM,0.8414 μM,3.16 µM,"CC1(C(=O)O)CCC2(C)CCC3(C)C(=CCC4C5(C)CCC(OC(=O)CCC(=O)O)C(C)(C)C5CCC43C)C2C1 (stereo not drawn) [Compound 27, 3β-O-(β-carboxypropionyl)-olean-12-en-30-oic acid]",
